The numbers were not newly measured in patent US20110052648A1, “ORAL MODIFIED-RELEASE FORMULATIONS CONTAINING THIAZEPINES” (priority 2008, published 2011), which cites them from elsewhere.

`OCCOCCN1CCN(C2=Nc3ccccc3Sc3ccccc32)CC1` [Quetiapine, 11-[4-[2-(2-hydroxyethoxy)ethyl]-1-piperazinyl]dibenzo[b,f][1,4]-thiazepine]: the solubility in water result is “moderately soluble”.
